Measured values: US20250304537A1 (Repare Therapeutics Inc., priority 2022, published 2025)

Molecular target: recombinant human Myt1 (full length PKMYT1) (Homo sapiens (Human), UniProt Q99640)
Test: Recombinant human Myt1 kinase assay (ADP-Glo)
Format: biochemical
Settings: 10 μM ATP
Description: Detection of Myt1 kinase activity utilized a recombinant human Myt1 kinase assay measuring the hydrolysis of ATP using a commercially available ADP-Glo Assay (ADP-Glo™ Kinase Assay from Promega, 10 000 assays, #V9102). Briefly, 5 μL recombinant human Myt1 (full length PKMYT1 recombinant human protein expressed in insect cells from Thermo Fisher #A33387; ˜80% purity) was prepared in reaction buffer (70 mM HEPES, 3 mM MgCl2, 3 mM MnCl2, 50 μg/ml PEG 20000, 3 μM Na-orthovanadate, 1.2 mM DTT) and added to 384 well white polystyrene, flat bottom well, non-treated, microplate (Corning #3572). After this, 5 μL of compounds (diluted in reaction buffer to 0.5% DMSO) was added to the microplate and the plate was spun briefly and incubated at 22° C. for 15 minutes. Ultra-Pure Adenosine Triphosphate (ATP) solution (ADP-Glo kit from Promega) was diluted in reaction buffer and 5 μL was added to the microplate, spun down briefly and incubated for 60 minutes at 30° C. The final Myt1 enzyme concentration was 18 nM and the final ATP concentration was 10 μM. After the 60-minute incubation, 15 μL of ADP-Glo reagent was added and the plate was spun briefly and sealed and incubated in the dark for 40 minutes at 22° C. Following this, 30 μL of kinase detection reagent was added per well and the plate was spun briefly, sealed and incubated for 45-60 minutes at 22° C. in the dark. Luminescence was read using the Envision (250 ms integration). The IC50 and the % max inhibition were calculated for each inhibitor compound tested.

Chain of recombinant human Myt1 (full length PKMYT1) (Q99640 whole entry): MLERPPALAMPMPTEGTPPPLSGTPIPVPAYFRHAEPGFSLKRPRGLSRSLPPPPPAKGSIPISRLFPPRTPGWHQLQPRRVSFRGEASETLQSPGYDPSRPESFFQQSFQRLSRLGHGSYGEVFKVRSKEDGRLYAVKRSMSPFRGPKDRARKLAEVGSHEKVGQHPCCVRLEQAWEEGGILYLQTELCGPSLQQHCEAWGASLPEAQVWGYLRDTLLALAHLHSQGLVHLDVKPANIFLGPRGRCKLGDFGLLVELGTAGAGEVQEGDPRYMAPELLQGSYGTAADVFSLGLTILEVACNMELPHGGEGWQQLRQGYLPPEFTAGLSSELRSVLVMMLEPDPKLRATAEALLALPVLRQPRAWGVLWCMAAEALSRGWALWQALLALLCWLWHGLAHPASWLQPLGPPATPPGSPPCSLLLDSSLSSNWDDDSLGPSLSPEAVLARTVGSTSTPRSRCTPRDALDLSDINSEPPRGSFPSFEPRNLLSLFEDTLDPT

Row | IC50 | Compound
1 | 26 nM | Cc1ccc2[nH]ncc2c1-c1cc(-c2cccc(OC(C)c3ccccn3)n2)nc(C(N)=O)c1N (stereo not drawn) [Compound 252]
2 | 643 nM | Cc1ccc2[nH]ncc2c1-c1cc(-c2cccc(OC[C@H]3CCCO3)n2)nc(C(N)=O)c1N (atropisomer, axis not shown) [Compound 388]
3 | 15 nM | Cc1ccc2[nH]ncc2c1-c1cc(-c2ccnc(N[C@H]3c4ccccc4C[C@H]3O)n2)nc(C(N)=O)c1N (atropisomer, axis not shown) [Compound 376]
4 | 827 nM | Cc1ccc(O)cc1-c1nc(C2CCC(F)(F)CC2)nc(C(N)=O)c1N [Compound 41, 5-amino-2-(4,4-difluorocyclohexyl)-6-(5-hydroxy-2-methylphenyl)pyrimidine-4-carboxamide]
5 | > 2000 nM | Cc1ccc2[nH]ncc2c1-c1nc(-c2ccccc2)nc(C(N)=O)c1Cl [Compound 75, 5-chloro-6-(5-methyl-1H-indazol-4-yl)-2-phenylpyrimidine-4-carboxamide]
6 | 19 nM | Cc1ccc2[nH]ncc2c1-c1cc(-c2ccnc(OC[C@H]3CCC(=O)N3)n2)nc(C(N)=O)c1N [Compound 337]
7 | 14 nM | Cc1ccc2[nH]ncc2c1-c1cc(-c2ccnc(OCCn3cccn3)n2)nc(C(N)=O)c1N [Compound 329]
8 | 71 nM | Cc1ccc2[nH]ncc2c1-c1cc(-c2cccc(OCc3ccn(C)n3)n2)nc(C(N)=O)c1N [Compound 248]
9 | 72 nM | COc1cnc(COc2cccc(-c3cc(-c4c(C)ccc5[nH]ncc45)c(N)c(C(N)=O)n3)n2)nc1 [Compound 255]
10 | 17 nM | Cc1ccc2[nH]ncc2c1-c1nc(-c2ccc(CN3CCOCC3)s2)nc(C(N)=O)c1N [Compound 156]
11 | 13 nM | Cc1ccc2[nH]ncc2c1-c1cc(-c2cccc(N3CCOCC3)n2)nc(C(N)=O)c1N [Compound 217]
12 | 9 nM | Cc1ccc2[nH]ncc2c1-c1cc(-c2ccnc(OCCc3nccn3C)n2)nc(C(N)=O)c1N [Compound 264]
13 | 27 nM | Cc1ccc2[nH]ncc2c1-c1nc(-c2cccc(CNc3ncccn3)c2)nc(C(N)=O)c1N [Compound 295]
14 | 46 nM | Cc1ccc2[nH]ncc2c1-c1cc(-c2ccccn2)cc(C(N)=O)c1N [Compound 137, 2-amino-3-(5-methyl-1H-indazol-4-yl)-5-(pyridin-2-yl)benzamide]
15 | > 5000 nM | Cc1n[nH]c2cccc(-c3nc(-c4ccccc4)nc(C(N)=O)c3N)c12 [Compound 116]
16 | 48 nM | CNc1cccc(-c2nc(C(N)=O)c(N)c(-c3c(C)ccc4[nH]ncc34)n2)c1 [Compound 140]
17 | 17 nM | Cc1ccc2[nH]ncc2c1-c1nc(-c2cccc(OCC(=O)O)c2)nc(C(N)=O)c1N [Compound 294]
18 | 1160 nM | COCCOc1cccc(-c2cc(-c3c(C)ccc4[nH]ncc34)c(N)c(C(N)=O)n2)n1 (atropisomer, axis not shown) [Compound 270]
19 | 904 nM | Cc1ccc2[nH]ncc2c1-c1nc(-c2ccc(N3CCOCC3)c(C(F)(F)F)c2)nc(C(N)=O)c1N [Compound 157]
20 | 8 nM | CO[C@H](COc1cccc(-c2cc(-c3c(C)ccc4[nH]ncc34)c(N)c(C(N)=O)n2)n1)C1CC1 (atropisomer, axis not shown) [Compound 364]

Row | IC50 | Compound
21 | 720 nM | Cc1c(-c2ccccn2)nc(C(N)=O)c(N)c1-c1cccc2[nH]ncc12 [Compound 246, 5-amino-4-(1H-indazol-4-yl)-3-methyl-[2,2′-bipyridine]-6-carboxamide]
22 | 13 nM | Cc1ccc2[nH]ncc2c1-c1cc(-c2ccnc(OCC3CCC(=O)N3)n2)nc(C(N)=O)c1N (stereo not drawn) [Compound 317]
23 | 246 nM | Cc1ccc(O)cc1-c1nc(C(N)=O)c(N)c(-c2cc(O)ccc2C)n1 [Compound 12]
24 | 175 nM | Cc1ccc(O)cc1-c1nc(-c2cc(F)cc(C(F)(F)F)c2)nc(C(N)=O)c1N [Compound 32]
25 | 330 nM | CCC(COc1cccc(-c2cc(-c3c(C)ccc4[nH]ncc34)c(N)c(C(N)=O)n2)c1)OC (stereo not drawn) [Compound 360]
26 | 4 nM | Cc1ccc2[nH]ncc2c1-c1cc(-c2ccnc(N[C@@H]3c4ccccc4C[C@@H]3O)n2)nc(C(N)=O)c1N (atropisomer, axis not shown) [Compound 384]
27 | 14 nM | Cc1ccc2[nH]ncc2c1-c1cc(-c2ccnc(OCCc3cnccn3)n2)nc(C(N)=O)c1N [Compound 310]
28 | 202 nM | Cc1ccc(O)cc1-c1c(N)c(C(N)=O)nc2ccccc12 [Compound 10, 3-amino-4-(5-hydroxy-2-methylphenyl)quinoline-2-carboxamide]
29 | 1510 nM | CCCCc1cc(-c2c(C)ccc3[nH]ncc23)c(N)c(C(N)=O)n1 [Compound 216, 3-amino-6-butyl-4-(5-methyl-1H-indazol-4-yl)picolinamide]
30 | 20 nM | CNC(=O)c1cccc(-c2nc(C(N)=O)c(N)c(-c3c(C)ccc4[nH]ncc34)n2)c1 [Compound 285]
31 | 364 nM | Cc1ccc2[nH]ncc2c1-c1cc(-c2cccc(OCC(F)(F)F)c2)nc(C(N)=O)c1N [Compound 175]
32 | 44 nM | Cc1ccc2[nH]ncc2c1-c1nc(-c2cccc(Cl)c2)nc(C(N)=O)c1N [Compound 111]
33 | 41 nM | COCCOc1cccc(-c2nc(C(N)=O)c(N)c(-c3c(C)ccc4[nH]ncc34)n2)c1 [Compound 286]
34 | 56 nM | Cc1ccc2[nH]ncc2c1-c1cc(-c2ncccn2)nc(C(N)=O)c1N [Compound 219]
35 | 94 nM | Cc1ccc2[nH]ncc2c1-c1nc(-c2ccc(N3CCOCC3)cc2)nc(C(N)=O)c1N [Compound 103]
36 | > 2000 nM | Cc1ccc2[nH]ncc2c1-c1cc(-c2cccc(OCc3c(F)c(F)c(F)c(F)c3F)n2)nc(C(N)=O)c1N [Compound 258]
37 | 20 nM | Cc1nc(COc2nccc(-c3cc(-c4c(C)ccc5[nH]ncc45)c(N)c(C(N)=O)n3)n2)co1 [Compound 316]
38 | 9 nM | Cc1ccc2[nH]ncc2c1-c1cc(-c2cccc(OC[C@H]3CCCO3)n2)nc(C(N)=O)c1N [Compound 356]
39 | 149 nM | CO[C@@H](COc1cccc(-c2cc(-c3c(C)ccc4[nH]ncc34)c(N)c(C(N)=O)n2)c1)c1ccccc1 [Compound 351]
40 | 4 nM | CO[C@@H](COc1cccc(-c2cc(-c3c(C)ccc4[nH]ncc34)c(N)c(C(N)=O)n2)n1)C1CC1 (atropisomer, axis not shown) [Compound 363]

Row | IC50 | Compound
41 | 62 nM | Cc1ccc(O)c(C)c1-c1cc(-c2cc3ccccc3n2C)nc(C(N)=O)c1N [Compound 46]
42 | 12 nM | Cc1ccc2[nH]ncc2c1-c1cc(-c2ccnc(OCCc3cccnc3)n2)nc(C(N)=O)c1N [Compound 272]
43 | 1830 nM | Cc1ccc(O)c(C)c1-c1cc(C(=O)O)nc(C(N)=O)c1N [Compound 53, 5-amino-6-carbamoyl-4-(3-hydroxy-2,6-dimethylphenyl)picolinic acid]
44 | 35 nM | CCC(CC)COc1cccc(-c2cc(-c3c(C)ccc4[nH]ncc34)c(N)c(C(N)=O)n2)n1 [Compound 350]
45 | > 50000 nM | Cc1ccc(O)cc1-c1cc2cccnc2c(C(N)=O)c1N [Compound 1, 7-amino-6-(5-hydroxy-2-methylphenyl)quinoline-8-carboxamide]
46 | 105 nM | Cc1ccc(-c2nc(C(N)=O)c(N)c(-c3cc(O)ccc3C)n2)cc1 [Compound 20]
47 | 51 nM | Cc1ccc(O)cc1-c1nc(-c2ccc(C#N)cc2)nc(C(N)=O)c1N [Compound 23]
48 | 57 nM | Cc1ccc2[nH]ncc2c1-c1nc(-c2ccc(N(C)C)cc2)nc(C(N)=O)c1N [Compound 145]
49 | 461 nM | Cc1ccc2[nH]ncc2c1-c1cc(-c2ccnc(N3Cc4ccccc4C[C@H]3CO)n2)nc(C(N)=O)c1N (atropisomer, axis not shown) [Compound 392]
50 | 770 nM | Cc1ccc2[nH]ncc2c1-c1cc(-c2ccnc(OC3COC3)n2)nc(C(N)=O)c1N [Compound 176]
51 | 38 nM | Cc1ccc2[nH]ncc2c1-c1nc(-c2cccc(C(=O)N(C)C)c2)nc(C(N)=O)c1N [Compound 284]
52 | 25 nM | Cc1ccc2[nH]ncc2c1-c1cc(-c2cccc(OCCN3CCN(C)CC3)n2)nc(C(N)=O)c1N [Compound 307]
53 | 4 nM | Cc1ccc2[nH]ncc2c1-c1nc(-c2ccccc2NC(=O)C(C)C)nc(C(N)=O)c1N [Compound 407]
54 | 18 nM | Cc1ccc2[nH]ncc2c1-c1cc(-c2ccnc(OCc3cncn3C3CCCCC3)n2)nc(C(N)=O)c1N [Compound 328]
55 | 107 nM | Cc1ccc2[nH]ncc2c1-c1cc(-c2cccc(Oc3ccccn3)n2)nc(C(N)=O)c1N [Compound 202]
56 | 25 nM | Cc1ccc(O)cc1-c1nc(-c2cccc(F)n2)nc(C(N)=O)c1N [Compound 5]
57 | 1740 nM | CO[C@@H](COc1nccc(-c2cc(-c3c(C)ccc4[nH]ncc34)c(N)c(C(N)=O)n2)n1)c1ccccc1 (atropisomer, axis not shown) [Compound 308]
58 | 9 nM | Cc1ccc2[nH]ncc2c1-c1cc(-c2ccnc(N3CCCC(O)C3)n2)nc(C(N)=O)c1N (stereo not drawn) [Compound 367]
59 | 93 nM | CCC(COc1cccc(-c2cc(-c3c(C)ccc4[nH]ncc34)cc(C(N)=O)n2)n1)OC (stereo not drawn) [Compound 498]
60 | 88 nM | Cc1ccc2[nH]ncc2c1-c1cc(-c2ccnc(OCCc3ncccn3)n2)nc(C(N)=O)c1N (atropisomer, axis not shown) [Compound 330]
